# According to article PMC6404402, “Design of indole- and MCR-based macrocycles as p53-MDM2 antagonists” (Beilstein Journal of Organic Chemistry, 2019):
# Where “and” joins values, the source holds several entries; their conditions need not be identical. Equal entries are not always repeated.
# Tests used:
# [1] = Ugi macrocyclisation (intramolecular U-4C-3CR type): alpha,omega-amino acid + indole-3-carboxaldehyde (imine formation, MW 120 °C, 1 h), then tert-butyl isocyanide (MW 120 °C, 1 h); ring bond formed = amide between carboxyl C and amine N (via Mumm acyl transfer); details: the molecule shown is the open-chain precursor, MeOH, 100.0 mM, 2.0 h
# [2] = biological target: 15N-labeled MDM2 (N-terminal domain of human MDM2, residues 1-118) (Homo sapiens, UniProt Q00987); assay: 1H,15N HSQC NMR titration of 15N-labeled MDM2; type: binding; details: 1H,15N HSQC titration, 7–9 ligand/protein ratios 0 to 5; 0.20–0.35 mM 15N MDM2; 50 mM phosphate pH 7.4, 150 mM NaCl, 5 mM DTT, 10% D2O; 300K; 50 mM ligand stock in DMSO; weighted mean of KD's of most perturbed residues in fast chemical exchange
# Chain of 15N-labeled MDM2 (N-terminal domain of human MDM2, residues 1-118) (Q00987 1-118): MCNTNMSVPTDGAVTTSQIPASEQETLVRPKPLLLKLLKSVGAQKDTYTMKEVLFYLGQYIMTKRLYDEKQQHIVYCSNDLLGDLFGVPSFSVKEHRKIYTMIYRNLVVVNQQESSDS
# Description: Protein expression and purification
# Fragment of the N-terminal domain of human MDM2 (residues 1-118) was cloned into the pET-20 (Novagen) and expressed in E. coli strain BL21-CodonPlus(DE3)-RIL as described previously.1 In brief, cells were cultured at 37 °C. Protein expression was induced with 1 mM IPTG at OD600 of 0.8 and cultured for additional 5 h at 37 °C. Cells were collected by centrifugation and lysed by sonication. Inclusion bodies were collected by centrifugation, washed with PBS containing 0.05% Triton-X100 and subsequently solubilized in 6 M guanidine hydrochloride in 100 mM Tris-HCl, pH 8.0, containing 1 mM EDTA and 10 mM β-mercaptoethanol. The protein was dialyzed against 4 M guanidine hydrochloride pH 3.5 supplemented with 10 mM β-mercaptoethanol. Following, the protein was refolded by dropwise addition into 10 mM Tris-HCl, pH 7.0, containing 1 mM EDTA and 10 mM β-mercaptoethanol and slow mixing overnight at 4 °C. Ammonium sulfate was added to the final concentration of 1.5 M and the refolded protein was recovered on Butyl Sepharose 4 Fast Flow (GE Healthcare). […]
# Uniform 15N isotope labeling was achieved by expression of the protein in the M9 minimal media containing 15NH4Cl as the sole nitrogen source. […] Water suppression was carried out using the WATERGATE sequence.2 All the spectra were recorded at 300K using a Bruker Avance 600 MHz spectrometer with the Cryo-Platform.
structure (smiles),measurement,setting,value
O=C(O)CSCC(=O)NCCCCCCCCCCCCN=Cc1c[nH]c2cc(Cl)ccc12 [2p],"ring closure, isolated yield",[1]; 19-membered ring,52%
O=C(O)CSCC(=O)NCCCCCCCCN=Cc1c[nH]c2cc(Cl)ccc12 [2n],"ring closure, isolated yield",[1]; 15-membered ring,39%
O=C(O)COCC(=O)NCCCCCCCCCCCCN=Cc1c[nH]c2cc(Cl)ccc12 [2j],"ring closure, isolated yield",[1]; 19-membered ring,60%
O=C(O)COCC(=O)NCCCCCCCCCCN=Cc1c[nH]c2ccccc12 [2e],"ring closure, isolated yield",[1]; 17-membered ring,31%
O=C(O)CSCC(=O)NCCCCCN=Cc1c[nH]c2cc(Cl)ccc12 [2l],"ring closure, isolated yield",[1]; 12-membered ring,35%
O=C(O)COCC(=O)NCCCCN=Cc1c[nH]c2ccccc12 [2a],"ring closure, isolated yield",[1]; 11-membered ring,40%
O=C(O)COCC(=O)NCCCCCCCCN=Cc1c[nH]c2cc(Cl)ccc12 [2h],"ring closure, isolated yield",[1]; 15-membered ring,25%
O=C(O)COCC(=O)NCCCCCCN=Cc1c[nH]c2cc(Cl)ccc12 [2g],"ring closure, isolated yield",[1]; 13-membered ring,35%
O=C(O)CSCC(=O)NCCCCN=Cc1c[nH]c2cc(Cl)ccc12 [2k],"ring closure, isolated yield",[1]; 11-membered ring,29%
O=C(O)COCC(=O)NCCCCCCCCCCN=Cc1c[nH]c2cc(Cl)ccc12 [2i],"ring closure, isolated yield",[1]; 17-membered ring,51%
O=C(O)COCC(=O)NCCCCCCN=Cc1c[nH]c2ccccc12,"ring closure, isolated yield",[1]; 13-membered ring,51%
O=C(O)COCC(=O)NCCCCCCCCCCCCN=Cc1c[nH]c2ccccc12 [2f],"ring closure, isolated yield",[1]; 19-membered ring,59%
O=C(O)COCC(=O)NCCCCCCCCN=Cc1c[nH]c2ccccc12 [2d],"ring closure, isolated yield",[1]; 15-membered ring,33%
O=C(O)CSCC(=O)NCCCCCCN=Cc1c[nH]c2cc(Cl)ccc12 [2m],"ring closure, isolated yield",[1]; 13-membered ring,39%
CC(C)(C)NC(=O)C(c1c[nH]c2cc(Cl)ccc12)N1CCCCCCNC(=O)COCC1=O (centres unmarked) [2g],Kd,[2],9 µM and 8.9 µM
O=C(O)COCC(=O)NCCCCCN=Cc1c[nH]c2ccccc12 [2b],"ring closure, isolated yield",[1]; 12-membered ring,35%
O=C(O)CSCC(=O)NCCCCCCCCCCN=Cc1c[nH]c2cc(Cl)ccc12 [2o],"ring closure, isolated yield",[1]; 17-membered ring,41%
